The test has as its system skin hydration level. As to the kind of experiment: Skin hydration, Corneometer CM 825. The class given is in vivo, human. To be noted: BPO-047 variants, 8% glycerin, 2% sodium PCA. As for the experimental part:
Healthy subjects were applied with single dose of formulations as shown in Example 14. Skin hydration is measured using a Corneometer® CM 825 instrument. (Courage+Khazaka, Koln, Germany). The measuring principle of the Corneometer® CM 825 is based on capacitance measurement of dielectric medium. Any change in the dielectric constant due to skin surface hydration alters the capacitance of a measuring capacitor. It is capable of detecting even slight changes in the skin hydration level.
Skin hydration level is assessed at baseline (fifteen minutes after each subject washed the left and right forearms) with the Corneometer® CM 825. The formulations are applied in designated chambers under occlusion for 6 hours which are then removed and the skin cleaned. Hydration is then measured one hour later.
Study protocol: The study was performed in a temperature controlled room (20-24° C.). Subjects washed their arms with water (no soap) and dried their arms with dry paper towel. Formulations were applied using test chambers. The location of each chamber within the stripe was marked once applied (maximum of 3 stripes on each arm). Each stripe contained only one formulation. One stripe served as a control, non treated area. […] Skin hydration level was assessed at baseline T=0 (minimum 15 minutes following rinse), using the Corneometer® CM 825, and tested based on study design. […]

`O=C1CCC(C(=O)[O-])N1.[Na+]` (centres unmarked) [Sodium PCA, sodium salt of 2-pyrrolidone-5-carboxylic acid]: the “hydration effect (Corneometer)” value is “increases hydration but to a lesser extent”.

For `OCC(O)CO` [glycerin], the “hydration effect (Corneometer)” value is “main contributor to the hydration effect”.

The values above are taken from patent US9439857B2, “Foam containing benzoyl peroxide” (Foamix Pharmaceuticals Ltd., priority 2007, dated 2016).
